Results reported in patent US20260137714A1, “METHODS AND COMPOSITIONS FOR TREATMENT OF OPHTHALMIC DISEASE” (Design Therapeutics, Inc., priority 2022, published 2026).

Tests used:
[1] = Compound solubility in water using in situ salt formation with aqueous HCl; assay type: physicochemical; conditions: for Result: appearance at the final concentration; for solubility: aqueous buffer, thermodynamic from solid, water with aqueous HCl, in situ salt formation, started at 10 mg/ml, minimum tested 1 mg/ml, read-out: Final Concentration; for pH after aq. NaOH: pH of the solution after adjustment with aq. NaOH; for pH: pH of the solution at the end of the experiment, before any aq. NaOH
Protocol: To determine solubility of candidate compounds, solubility of the compounds was determined at a concentration of 10 mg/ml using in situ salt formation with aqueous HCl. First, 0.5 ml of sterile water was added to 10 mg of dry compound, vortexed, and briefly centrifuged. Next, 0.5 equivalents of 0.025 M HCl were added to the mixture followed by a volume of water that totaled 1 ml. The mixture was stirred continuously for 0.5 to 24 h. […] If the solution was not clear, additional water and/or HCl was added, along with continuous stirring and vortexing until it was determined that the compound had completely dissolved or was refractory to dissolution. The minimum concentration tested was 1 mg/ml. pH values were assessed at the end of the experiment.

[2] = system: Immortalized Fuchs endothelial corneal dystrophy cells (F35T); assay: In vitro foci assay (nuclear foci by FISH with (CAG)10-Cy3 oligonucleotide); assay type: cell-based; conditions: 48 h treatment, 3000 to 1 nM
Protocol: Immortalized Fuchs endothelial corneal dystrophy cells (F35T) were seeded in black-sided clear-bottomed 96 well plates at 5000 cells per well 16 hours prior to compound treatment. Compounds were dissolved in DMSO to 1 mM and diluted to a final concentration of 3000 to 1 nM in F35T cell culture media. Diluted compounds were added to the F35T cells and incubated for 48 h.
Following treatment, cells were fixed in 4% paraformaldehyde for 20 min, washed twice with PBS, and permeabilized with 70% ethanol at −20 deg C. for 16 h. Following permeabilization, cells were washed twice with PBS then hydrated with 30% formamide plus 2×SSC buffer for 10 min. Nuclear foci were labeled using fluorescent in situ hybridization with a (CAG)10-Cy3 oligonucleotide. Images were collected and automated image analysis was performed on a BioTEK Cytation 5.

[3] = Ex vivo bovine eye penetration of compounds formulated in water; assay type: in vitro ADME; conditions: for Cornea, R1 / Descemet Membrane/endothelial cells, R1: bovine eye, 30 min at room temperature, LC-MS, replicate R1
Protocol: Freshly enucleated bovine eyes (Nebraska Scientific) were treated with compound as described previously (Luschmann et al., “Developing an in situ nanosuspension: a novel approach towards the efficient administration of poorly soluble drugs at the anterior eye”, European Journal of Pharmaceutical Sciences (2013)). Individual eyes were rinsed with 10 mL of sterile 0.9% saline then placed in the bottom of a 600 mL glass beaker (Pyrex). A borosilicate glass powder funnel with a 26 mm diameter stem (Eisco Labs) was gently rested on top of the eye with the cornea centered in the cylindrical opening, creating a sealed dosing chamber in which solutions were applied. Eyes were equilibrated in sterile 0.9% saline at room temperature for 20 min then decanted. 500 μL of 0.1 to 0.3% GeneTAC compound was applied to the cornea followed by 167 μL of sterile water to mimic the instillation a 30 μL eye drop into 10 μL of tear fluid. Compound was incubated for 30 min at room temperature after which the funnel was removed. Next, eyes were washed twice with 10 ml of 5.2% aqueous mannitol solution to remove residual compound. Aqueous humor was recovered using a 28-gauge needle and snap frozen in liquid nitrogen. The cornea was then surgically excised, and the Descemet membrane and corneal endothelium (DM/CE) were removed with fine forceps under a dissecting microscope and snap frozen in liquid nitrogen. Compound abundance was quantified in aqueous humor, anterior cornea, and DM/CE using liquid chromatography-mass spectrometry.

Cn1cc(NC(=O)c2nc(NC(=O)CCNC(=O)c3cc(NC(=O)c4nccn4C)cn3C)cn2C)cc1C(=O)NCCCC(=O)Nc1cn(C)c(C(=O)NCCC(=O)Nc2cc(C(=O)Nc3cn(C)c(C(=O)NCCC(=O)N4CCC5(CC4)CNC5)n3)n(C)c2)n1 [Compound 208]
Result [1]: Clear solution
solubility [1]: ≥ 3530 µg/mL
pH after aq. NaOH [1]: 6.07
pH [1]: 2.75
IC50 [2]: 186 nM

Cn1cc(NC(=O)c2nc(NC(=O)CCNC(=O)c3cc(NC(=O)c4nccn4C)cn3C)cn2C)cc1C(=O)NCCCC(=O)Nc1cn(C)c(C(=O)NCCC(=O)Nc2cc(C(=O)Nc3cn(C)c(C(=O)NCCC(=O)N4CCC(C5CNC5)CC4)n3)n(C)c2)n1 [Compound 204]
Result [1]: Clear solution
solubility [1]: ≥ 3780 µg/mL
pH after aq. NaOH [1]: 6.73
pH [1]: 2.32
IC50 [2]: 518 nM

CN1CC(C2CCN(C(=O)CCNC(=O)c3nc(NC(=O)c4cc(NC(=O)CCNC(=O)c5nc(NC(=O)CCCNC(=O)c6cc(NC(=O)c7nc(NC(=O)CCNC(=O)c8cc(NC(=O)c9nccn9C)cn8C)cn7C)cn6C)cn5C)cn4C)cn3C)CC2)C1 [Compound 203]
Result [1]: Clear solution
solubility [1]: ≥ 3180 µg/mL
pH [1]: 8.04
IC50 [2]: 384 nM

CCCCn1cc(NC(=O)c2nc(NC(=O)CCNC(=O)c3cc(NC(=O)c4nccn4C)cn3C)cn2C)cc1C(=O)NCC[C@@H](N)C(=O)Nc1cn(C)c(C(=O)NCCC(=O)Nc2cc(C(=O)Nc3cn(C)c(C(=O)NCCC(=O)N4CCN(C)CC4)n3)n(C)c2)n1 [Compound 214]
Result [1]: Clear solution
solubility [1]: ≥ 10000 µg/mL
pH [1]: 2.16
IC50 [2]: 237 nM

COCCOCCOCCOCCN(CCCNC(=O)c1nc(NC(=O)c2cc(NC(=O)CCNC(=O)c3nc(NC(=O)CCCNC(=O)c4cc(NC(=O)c5nc(NC(=O)CCNC(=O)c6cc(NC(=O)c7nccn7C)cn6C)cn5C)cn4C)cn3C)cn2C)cn1C)CCOCCOCCOCCOC [Compound 201]
Result [1]: Clear solution
solubility [1]: ≥ 10000 µg/mL
pH [1]: 6.04
IC50 [2]: 167 nM
Concentrations reached in corneal epithelium and stroma and in Descemet membrane and endothelium, relative to IC50 ([3]; FIG. 1, ex vivo bovine eye distribution): above the IC50 for preventing foci formation as well as above the IC50 for preventing abnormal splicing events
Cornea, R1 [3]: 798 nM
Descemet Membrane/endothelial cells, R1 [3]: 46 nM

Cn1cc(NC(=O)c2nc(NC(=O)CCNC(=O)c3cc(NC(=O)c4nccn4C)cn3C)cn2C)cc1C(=O)NCCCC(=O)Nc1cn(C)c(C(=O)NCCC(=O)Nc2cc(C(=O)Nc3cn(C)c(C(=O)NCCC(=O)N4CCC(N5CCNCC5)CC4)n3)n(C)c2)n1 [Compound 213]
Result [1]: Clear solution
solubility [1]: ≥ 3210 µg/mL
pH [1]: 6.64
IC50 [2]: 892 nM
Cornea, R1 [3]: 50 nM
Descemet Membrane/endothelial cells, R1 [3]: BQL

CN1CCN(C(=O)CCNC(=O)c2nc(NC(=O)c3cc(NC(=O)CCNC(=O)c4nc(NC(=O)[C@H](N)CCNC(=O)c5cc(NC(=O)c6nc(NC(=O)CCNC(=O)c7cc(NC(=O)c8nccn8C)cn7C)cn6C)cn5C)cn4C)cn3C)cn2C)CC1 [Compound 209]
Result [1]: Clear solution
solubility [1]: ≥ 10000 µg/mL
pH [1]: 2.21
IC50 [2]: 1650 nM

Cn1cc(NC(=O)c2nc(NC(=O)CCNC(=O)c3cc(NC(=O)c4nccn4C)cn3C)cn2C)cc1C(=O)NCCCC(=O)Nc1cn(C)c(C(=O)NCCC(=O)Nc2cc(C(=O)Nc3cn(C)c(C(=O)NCCC(=O)N4CCC(C#CC#CC5CCNCC5)CC4)n3)n(C)c2)n1 [Compound 207]
Result [1]: Clear solution
solubility [1]: ≥ 10000 µg/mL
IC50 [2]: 33 nM

Cn1cc(NC(=O)c2nccn2C)cc1C(=O)NCCC(=O)Nc1cn(C)c(C(=O)Nc2cc(C(=O)NCC[C@@H](N)C(=O)Nc3cn(C)c(C(=O)NCCC(=O)Nc4cc(C(=O)Nc5cn(C)c(C(=O)NCCC(=O)N6CCC(C#CC#CC7CCNCC7)CC6)n5)n(C)c4)n3)n(C)c2)n1 [Compound 210]
Result [1]: Clear solution
solubility [1]: ≥ 10000 µg/mL
pH [1]: 2.14
IC50 [2]: 715 nM

Cn1cc(NC(=O)c2nc(NC(=O)CCNC(=O)c3cc(NC(=O)c4nccn4C)cn3C)cn2C)cc1C(=O)NCCCC(=O)Nc1cn(C)c(C(=O)NCCC(=O)Nc2cc(C(=O)Nc3cn(C)c(C(=O)NCCCN4CCOCC4)n3)n(C)c2)n1 [Compound 206]
Result [1]: Clear solution
solubility [1]: ≥ 1000 µg/mL
pH [1]: 4.96
IC50 [2]: 172 nM

CN(C)CCCCNC(=O)c1nc(NC(=O)c2cc(NC(=O)CCNC(=O)c3nc(NC(=O)[C@H](N)CCNC(=O)c4cc(NC(=O)c5nc(NC(=O)CCNC(=O)c6cc(NC(=O)c7nccn7C)cn6C)cn5C)cn4C)cn3C)cn2C)cn1C [Compound 211]
Result [1]: Clear solution
solubility [1]: ≥ 10000 µg/mL
pH [1]: 2.14
IC50 [2]: 1640 nM

CN1CC2(CCN(C(=O)CCNC(=O)c3nc(NC(=O)c4cc(NC(=O)CCNC(=O)c5nc(NC(=O)CCCNC(=O)c6cc(NC(=O)c7nc(NC(=O)CCNC(=O)c8cc(NC(=O)c9nccn9C)cn8C)cn7C)cn6C)cn5C)cn4C)cn3C)CC2)C1 [Compound 202]
Result [1]: Clear solution
solubility [1]: ≥ 4030 µg/mL
pH after aq. NaOH [1]: 6.24
pH [1]: 3.10
IC50 [2]: 213 nM

CN(C)CCOCCNC(=O)c1nc(NC(=O)c2cc(NC(=O)CCNC(=O)c3nc(NC(=O)CCCNC(=O)c4cc(NC(=O)c5nc(NC(=O)CCNC(=O)c6cc(NC(=O)c7nccn7C)cn6C)cn5C)cn4C)cn3C)cn2C)cn1C [Compound 205]
Result [1]: Clear solution
solubility [1]: ≥ 1000 µg/mL
pH [1]: 7.62
IC50 [2]: 65 nM

COCCOCCOCCOCCOCCOCCOc1ccc(C#CCNCCCNC(=O)c2nc(NC(=O)c3cc(NC(=O)CCNC(=O)c4nc(NC(=O)CCCNC(=O)c5cc(NC(=O)c6nc(NC(=O)CCNC(=O)c7cc(NC(=O)c8nccn8C)cn7C)cn6C)cn5C)cn4C)cn3C)cn2C)cc1 [Compound 212]
Result [1]: Clear solution
solubility [1]: ≥ 10000 µg/mL
pH [1]: 1.97
IC50 [2]: 378 nM
